{"source": "patent US11337909B2", "about": "“Methods for modulating pigmentation by angiotensin-converting enzyme 2 modulation” (Max-Delbrück-Centrum für Molekulare Medizin in der …, priority 2017, dated 2022)", "key": {"ACE2 [1]": {"target": "T1, ACE2 (Homo sapiens, UniProt Q9BYF1)", "conditions": "in vitro and in vivo; Shenoy et al; cited from earlier work"}, "ACE2 [2]": {"test_system": "ACE2", "assay": "ACE2 expression in B16F10 cells by real-time RT-PCR", "assay_type": "cell-based, mouse", "conditions": "10 ng/μl DIZE, 48 hours, FIG. 8", "description": "B16F10 mouse melanoma cells were incubated with 10 ng/μl diminazene aceturate (DIZE, ACE2 activator) for 48 hours and the expression of ACE2 was quantified by real-time RT-PCR; *p<0.05."}, "tyrosinase (TYR)": {"test_system": "tyrosinase (TYR)", "assay": "Tyrosinase (TYR) expression in B16F10 cells by real-time RT-PCR", "assay_type": "cell-based, mouse", "conditions": "1 nM aMSH + 10 ng/μl DIZE, 48 hours, FIG. 7; dihydrochloride", "description": "B16F10 mouse melanoma cells were incubated with 1 nM aMSH, 10 ng/μl diminazene aceturate (DIZE, ACE2 activator) or a combination of both for 48 hours and the expression of the melanin-synthesizing enzyme tyrosinase (TYR) was quantified by real-time RT-PCR; **p<0.01; *p<0.05.\nB16F10 mouse melanoma cells were incubated with 1 nM aMSH, 10 ng/μl diminazene aceturate (DIZE, ACE2 activator) or a combination of both for 48 hours and the expression of the melanin-synthesizing enzyme tyrosinase (TYR) was quantified by real-time RT-PCR."}, "[3]": {"test_system": "B16F10 mouse melanoma cells", "assay": "Cell culture assay for melanogenesis in B16F10 melanoma cells", "assay_type": "cell-based", "source_text": "FIG. 2: Melanogenesis in B16F10 melanoma cells stimulated with α-MSH1-13 and α-MSH1-12. *** p<0.001 compared to control without α-MSH, +++, +p<0.001, p<0.05 α-MSH1-12 compared to the same concentration of α-MSH1-13.\nIn wild-type mice, the inventors further confirmed previous studies in humans (Ham-ming et al., 2004, Grzegrzolka et al., 2013) showing that ACE2 is expressed in the skin."}, "ACE2 [4]": {"target": "T1, ACE2", "conditions": "ACE2 inhibitor; cited from earlier work"}, "Tyrosinase": {"test_system": "Tyrosinase", "assay": "Tyrosinase mRNA expression in human abdominal skin biopsies", "assay_type": "cell-based", "conditions": "for tyrosinase mRNA expression: FIG. 4", "description": "FIG. 4: ACE2 limits the efficiency of αMSH1-13 in human skin; Tyrosinase expression. Tyrosinase (melanin synthesizing enzyme) mRNA expression was measured in human abdominal skin biopsies after treatment with vehicle, 10 nM αMSH1-13, 10 nM αMSH1-13+100 nM of the ACE2-Inhibitor MLN4760, or 100 nM MLN4760 alone.\n(§1) Biopsies were treated with vehicle, 10 nM αMSH1-13, 10 nM αMSH1-13+100 nM of the ACE2-Inhibitor MLN4760, or 100 nM MLN4760 alone."}, "[5]": {"test_system": "human abdominal skin biopsies", "assay": "Fontana-Masson melanin staining in human abdominal skin biopsies", "assay_type": "cell-based", "conditions": "FIG. 5", "description": "FIG. 5: ACE2 limits the efficiency of αMSH1-13 in human skin; Fontana-Masson staining in human abdominal skin biopsies. Melanin was stained black by Fontana-Masson staining in human abdominal skin biopsies after treatment with vehicle, 10 nM αMSH1-13, or 10 nM αMSH1-13+100 nM of the ACE2-Inhibitor MLN476.\nas §1"}, "ACE2 [6]": {"target": "T1, ACE2", "parameters": "purchased Enzo life sciences, Plymouth meeting, PA", "conditions": "Kulemina and Ostrov; cited from earlier work"}, "ACE2 [7]": {"target": "T1, ACE2", "conditions": "Hernandez Prada et al; cited from earlier work"}, "ACE2 [8]": {"target": "T1, ACE2", "conditions": "Mores et al; read-out: Ki value toward ACE2; cited from earlier work"}}, "note": "Entries after “also recorded” stand apart in the source; their conditions may differ. Counter-ions that a name gives are not always drawn.", "data": [{"compound": "N=C(N)c1ccc(/N=N/Nc2ccc(C(=N)N)cc2)cc1", "note": "[DIZE, 4-[2-(4-carbamimidoylphenyl)iminohydrazinyl]benzenecarboximidamide dihydrochloride]", "values": [{"measurement": "enhancement of the enzymatic activity of ACE2", "setting": "ACE2 [1]", "value": "enhance the enzymatic activity of ACE2"}, {"measurement": "ACE2 expression", "setting": "ACE2 [2]", "value": "stimulates ACE2 expression"}, {"measurement": "tyrosinase (TYR) expression, effect on αMSH stimulation", "setting": "tyrosinase (TYR)", "value": "inhibits the stimulating effect of aMSH; also recorded: inhibits the stimulating effect of αMSH"}]}, {"compound": "CC(C)C[C@H](N[C@@H](Cc1cncn1Cc1cc(Cl)cc(Cl)c1)C(=O)O)C(=O)O", "note": "[MLN-4760, (2S)-2-[[(1S)-1-carboxy-2-[3-[(3,5-dichlorophenyl)methyl]imidazol-4-yl]ethyl]amino]-4-methylpentanoic acid]", "values": [{"measurement": "effect on the ACE2-mediated inhibition of α-MSH1-13 melanogenic effect", "setting": "[3]; B16F10 cells, α-MSH1-13 + human recombinant ACE2, FIG. 3", "value": "inhibits the effect of ACE2"}, {"measurement": "IC50", "setting": "ACE2 [4]", "value": 0.5, "unit": "nM"}, {"measurement": "tyrosinase mRNA expression, effect on αMSH1-13 stimulation", "setting": "Tyrosinase; 10 nM αMSH1-13 + 100 nM MLN4760, FIG. 4", "value": "This effect is increased by ACE2 inhibition"}, {"measurement": "tyrosinase mRNA expression", "setting": "Tyrosinase; 100 nM MLN4760 alone", "value": "ACE2 inhibition alone already stimulates tyrosinase expression"}, {"measurement": "melanin levels (Fontana-Masson staining), effect on αMSH1-13 increase", "setting": "[5]; 10 nM αMSH1-13 + 100 nM ACE2 inhibitor", "value": "This effect is further increased by ACE2 inhibition"}]}, {"compound": "Cc1ccc(S(=O)(=O)Oc2ccc3oc4c(CO)ccc(NCCN(C)C)c4c(=O)c3c2)cc1", "note": "[XNT, [8-(2-dimethylaminoethylamino)-5-(hydroxymethyl)-9-oxoxanthen-2-yl]4-methyl-benzenesulfonate]", "values": [{"measurement": "increase of the velocity of the enzyme (rate of catalysis)", "setting": "ACE2 [6]", "value": "approximately twofold"}, {"measurement": "enhancement of ACE2 activity", "setting": "ACE2 [7]", "value": "enhance ACE2 activity in a dose-dependent manner"}]}, {"compound": "CC(=O)NC(Cc1c[nH]cn1)C(=O)N1CCCC1P(=O)(O)CC(Cc1cc(-c2ccccc2)no1)C(=O)O", "note": "(stereo not shown) [compound 41]", "values": [{"measurement": "Ki", "setting": "ACE2 [8]", "value": 0.4, "unit": "nM"}]}, {"compound": "O=C1OC2(c3ccc(O)cc3Oc3cc(O)ccc32)c2cccc3cccc1c23", "note": "[resorcinolnaphthalein]", "values": [{"measurement": "enhancement of ACE2 activity", "setting": "ACE2 [7]", "value": "enhance ACE2 activity in a dose-dependent manner"}]}, {"compound": "human recombinant ACE2: human recombinant angiotensin-converting enzyme 2", "values": [{"measurement": "effect of added ACE2 on melanogenic activity of α-MSH1-13", "setting": "[3]; B16F10 cells, with α-MSH1-13, FIG. 3 upper panel", "value": "Inhibition of the melanogenic effect of α-MSH1-13; also recorded: reduces its melanogenic activity"}]}, {"compound": "α-MSH1-12: expected ACE2 digestion product of α-MSH1-13 (SYSMEHFRWGKP)", "values": [{"measurement": "melanogenic activity relative to α-MSH1-13", "setting": "[3]; B16F10 mouse melanoma cells, FIG. 2", "value": "at least 100 times less active"}]}, {"compound": "α-MSH1-13: α-melanocyte stimulating hormone, 13-amino-acid peptide hormone", "values": [{"measurement": "tyrosinase mRNA expression", "setting": "Tyrosinase; 10 nM αMSH1-13 vs vehicle", "value": "stimulates tyrosinase expression"}, {"measurement": "melanin levels (Fontana-Masson staining)", "setting": "[5]; 10 nM αMSH1-13 vs vehicle", "value": "increases melanin levels"}]}]}
